Measurements from US20240360157A1, “TYK2 INHIBITORS” (BIOGEN MA INC., priority 2021, published 2024).

Assays:
Format in all cases: biochemical
[1] = molecular target: human TYK2 catalytic kinase (JH1) domain (Homo sapiens (Human), UniProt P29597); assay: ADP-Glo Kinase Assay, recombinant TYK2 catalytic kinase (JH1) domain; conditions: recombinant JH1 domain 2 nM, 10 μM ATP, JAK3-974 peptide, mean, read-out: TYK2 biochem IC50 (nM) Mean
Outline: (§1)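 Reactions ran 100 min with 50 μM substrate peptide (JAK3-342 for JAK1 at 4 nM enzyme; JAK3-974 for JAK2 0.2 nM, JAK3 0.3 nM, TYK2 2 nM), and ADP formed was read by ADP-Glo luminescence. Eleven-point 3-fold series from 10 or 1 μM; IC50 fitted by 4-parameter logistic model.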

[2] = molecular target: human JAK1 catalytic kinase (JH1) domain (Homo sapiens (Human), UniProt P23458); assay: ADP-Glo Kinase Assay, recombinant JAK1 catalytic kinase (JH1) domain; conditions: recombinant JH1 domain 4 nM, 35 μM ATP, JAK3-342 peptide, mean, read-out: JAK1 biochem IC50 (nM) Mean
Outline: as §1

[3] = molecular target: human JAK3 catalytic kinase (JH1) domain (Homo sapiens (Human), UniProt P52333); assay: ADP-Glo Kinase Assay, recombinant JAK3 catalytic kinase (JH1) domain; conditions: recombinant JH1 domain 0.3 nM, 4 μM ATP, JAK3-974 peptide, mean, read-out: JAK3 biochem IC50 (nM) Mean
Outline: as §1

[4] = molecular target: human JAK2 catalytic kinase (JH1) domain (Homo sapiens (Human), UniProt O60674); assay: ADP-Glo Kinase Assay, recombinant JAK2 catalytic kinase (JH1) domain; conditions: recombinant JH1 domain 0.2 nM, 15 μM ATP, JAK3-974 peptide, mean, read-out: JAK2 biochem IC50 (nM) Mean
Outline: as §1

Chain of human TYK2 catalytic kinase (JH1) domain (P29597 897-1176): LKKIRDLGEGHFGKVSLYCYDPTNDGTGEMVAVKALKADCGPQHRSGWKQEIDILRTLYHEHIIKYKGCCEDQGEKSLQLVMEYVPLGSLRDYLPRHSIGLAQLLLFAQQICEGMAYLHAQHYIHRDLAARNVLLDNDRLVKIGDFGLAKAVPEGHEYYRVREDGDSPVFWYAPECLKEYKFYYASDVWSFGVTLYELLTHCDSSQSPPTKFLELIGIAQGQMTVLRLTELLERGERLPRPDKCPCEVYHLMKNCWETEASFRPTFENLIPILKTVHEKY
Chain of human JAK2 catalytic kinase (JH1) domain (O60674 849-1124): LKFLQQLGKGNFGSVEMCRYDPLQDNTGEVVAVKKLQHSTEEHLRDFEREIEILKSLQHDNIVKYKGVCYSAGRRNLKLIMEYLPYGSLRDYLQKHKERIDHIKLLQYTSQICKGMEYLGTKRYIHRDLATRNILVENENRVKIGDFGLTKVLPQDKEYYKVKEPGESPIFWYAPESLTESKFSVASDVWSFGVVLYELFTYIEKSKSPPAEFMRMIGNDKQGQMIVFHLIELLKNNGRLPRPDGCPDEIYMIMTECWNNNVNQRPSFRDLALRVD
Chain of human JAK1 catalytic kinase (JH1) domain (P23458 875-1153): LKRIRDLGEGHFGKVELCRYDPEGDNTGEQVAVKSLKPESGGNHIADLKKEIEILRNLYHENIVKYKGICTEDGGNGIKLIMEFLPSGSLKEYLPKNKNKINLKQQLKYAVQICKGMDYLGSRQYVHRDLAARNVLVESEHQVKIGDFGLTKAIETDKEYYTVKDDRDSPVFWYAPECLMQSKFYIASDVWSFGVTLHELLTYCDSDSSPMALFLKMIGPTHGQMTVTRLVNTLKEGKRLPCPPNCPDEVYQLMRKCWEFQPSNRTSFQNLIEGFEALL
Chain of human JAK3 catalytic kinase (JH1) domain (P52333 822-1111): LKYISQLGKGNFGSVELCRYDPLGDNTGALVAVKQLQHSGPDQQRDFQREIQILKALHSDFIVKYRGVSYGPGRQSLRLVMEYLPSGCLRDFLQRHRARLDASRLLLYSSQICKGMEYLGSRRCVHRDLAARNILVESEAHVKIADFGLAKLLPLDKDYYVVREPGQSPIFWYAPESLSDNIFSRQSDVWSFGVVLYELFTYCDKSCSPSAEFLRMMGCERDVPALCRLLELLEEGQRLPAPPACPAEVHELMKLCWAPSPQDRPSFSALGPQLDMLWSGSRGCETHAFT

SMILES	IC50 [1] [nM]	IC50 [2] [nM]	IC50 [3] [nM]	IC50 [4] [nM]
O=C([C@@H]1CC1(F)F)N1C2CCC1CN(c1ccnn3cc(-c4cnn(C(F)(F)F)c4)cc13)C2 [Example 19, ((S)-2,2-difluorocyclopropyl)(3-(6-(1-(trifluoromethyl)-1H-pyrazol-4-yl)pyrrolo[1,2-b]pyridazin-4-yl)-3,8-diazabicyclo[3.2.1]octan-8-yl)methanone]	2.1	34	518	29
O=C([C@H]1C[C@@H]1CO)N1C2CCC1CN(c1ncnn3cc(-c4cnn(C(F)F)c4)cc13)C2 (racemic) [Example 38, Rac-(3-(6-(1-(difluoromethyl)-1H-pyrazol-4-yl)pyrrolo[2,1-f][1,2,4]triazin-4-yl)-3,8-diazabicyclo[3.2.1]octan-8-yl)((1S,2S)-2-(hydroxymethyl)cyclopropyl)methanone]	326	1640	≥ 10000	8260
Cn1cc(-c2cc3c(N4CC5CCC(C4)N5C(=O)[C@@H]4C[C@H]4F)ncnn3c2)c(F)n1 [Example 96, (3-(6-(3-fluoro-1-methyl-1H-pyrazol-4-yl)pyrrolo[2,1-f][1,2,4]triazin-4-yl)-3,8-diazabicyclo[3.2.1]octan-8-yl)((1S,2R)-2-fluorocyclopropyl)methanone]	13.7	718	3270	422
Cn1cc(-c2cc3c(N4CC5CCC(C4)N5S(=O)(=O)[C@H]4CC4(F)F)ccnn3c2)cn1 [Example 197, 4-(8-(((S)-2,2-difluorocyclopropyl)sulfonyl)-3,8-diazabicyclo[3.2.1]octan-3-yl)-6-(1-methyl-1H-pyrazol-4-yl)pyrrolo[1,2-b]pyridazine]	16.7	322	701	99
N#CC1CC(C(=O)N2C3CCC2CN(c2ncnn4cc(-c5cnn(C(F)F)c5)cc24)C3)C1 (stereo not shown) [Example 12, 3-(3-(6-(1-(difluoromethyl)-1H-pyrazol-4-yl)pyrrolo[2,1-f][1,2,4]triazin-4-yl)-3,8-diazabicyclo[3.2.1]octane-8-carbonyl)cyclobutane-1-carbonitrile]	656	2980	8350	7960
O=C([C@H]1C[C@@H]1CO)N1C2CCC1CN(c1ncnn3cc(-c4cnn(C(F)F)c4)cc13)C2 (single isomer, unassigned) [Example 39]	762	2130	6380	9090
Cn1cc(-c2cc3c(N4CC5CCC(C4)N5C(=O)[C@@H]4C[C@H]4C#N)ncnn3c2)cn1 (single isomer, unassigned) [Example 74]	126	1280	4040	1910
Cn1cc(-c2cc3c(N4CC5CCC(C4)N5C(=O)[C@H]4CC4(F)F)ncnn3c2)cn1 [Example 84, ((R)-2,2-difluorocyclopropyl)(3-(6-(1-methyl-1H-pyrazol-4-yl)pyrrolo[2,1-f][1,2,4]triazin-4-yl)-3,8-diazabicyclo[3.2.1]octan-8-yl)methanone]	55	1800	6890	1220
Cn1cc(-c2cc3c(N4CC5CCC(C4)N5C(=O)[C@@H]4C[C@H]4F)ncnn3c2)cc(F)c1=O [Example 167]	95	2210	10000	1740
Cc1cc(-c2cc3c(N4CC5CCC(C4)N5C(=O)[C@@H]4C[C@H]4F)ncnn3c2)ccn1 [Example 91, ((1S,2R)-2-fluorocyclopropyl)(3-(6-(2-methylpyridin-4-yl)pyrrolo[2,1-f][1,2,4]triazin-4-yl)-3,8-diazabicyclo[3.2.1]octan-8-yl)methanone]	21.8	316	4500	624
Cn1cc(-c2cc3c(N4CC5CCC(C4)N5C(=O)[C@H]4C[C@H]4C#N)ncnn3c2)cn1 (racemic) [Example 65, Rac-(1R,2S)-2-(3-(6-(1-methyl-1H-pyrazol-4-yl)pyrrolo[2,1-f][1,2,4]triazin-4-yl)-3,8-diazabicyclo[3.2.1]octane-8-carbonyl)cyclopropane-1-carbonitrile]	1210	6090	6790	9840
Cn1cc(-c2cc3c(N4CC5CCC(C4)N5C(=O)[C@H]4C[C@H]4F)ncnn3c2)cn1 (racemic) [Example 60, Rac-((1R,2R)-2-fluorocyclopropyl)(3-(6-(1-methyl-1H-pyrazol-4-yl)pyrrolo[2,1-f][1,2,4]triazin-4-yl)-3,8-diazabicyclo[3.2.1]octan-8-yl)methanone]	563	1340	3080	8090
Cc1cnc(-c2cc3c(N4CC5CCC(C4)N5C(=O)[C@@H]4C[C@H]4F)ccnn3c2)cn1 [Example 131, ((1S,2R)-2-fluorocyclopropyl)(3-(6-(5-methylpyrazin-2-yl)pyrrolo[1,2-b]pyridazin-4-yl)-3,8-diazabicyclo[3.2.1]octan-8-yl)methanone]	50.7	562	5470	672
Cn1cc(-c2cc3c(N4CC5CCC(C4)N5C(=O)C4(F)CC4)ncnn3c2)cn1 [Example 64, (1-fluorocyclopropyl)(3-(6-(1-methyl-1H-pyrazol-4-yl)pyrrolo[2,1-f][1,2,4]triazin-4-yl)-3,8-diazabicyclo[3.2.1]octan-8-yl)methanone]	289	1150	1110	5210
O=C([C@@H]1C[C@H]1F)N1C2CCC1CN(c1ccnn3cc(-c4ccnc(C(F)(F)F)c4)cc13)C2 [Example 112, ((1S,2R)-2-fluorocyclopropyl)(3-(6-(2-(trifluoromethyl)pyridin-4-yl)pyrrolo[1,2-b]pyridazin-4-yl)-3,8-diazabicyclo[3.2.1]octan-8-yl)methanone]	2.9	37	835	38
Cn1cc(-c2cc3c(N4CC5CCC(C4)N5C(=O)[C@@H]4C[C@H]4F)ccnc3[nH]2)cn1 [Example 238, ((1S,2R)-2-fluorocyclopropyl)(3-(2-(1-methyl-1H-pyrazol-4-yl)-1H-pyrrolo[2,3-b]pyridin-4-yl)-3,8-diazabicyclo[3.2.1]octan-8-yl)methanone]	0.1	10	61	6
Cn1ncc(-c2cc3c(N4CC5CCC(C4)N5C(=O)[C@@H]4C[C@H]4F)ccnn3c2)c1F [Example 133, (3-(6-(5-fluoro-1-methyl-1H-pyrazol-4-yl)pyrrolo[1,2-b]pyridazin-4-yl)-3,8-diazabicyclo[3.2.1]octan-8-yl)((1S,2R)-2-fluorocyclopropyl)methanone]	6	124	856	112
O=C([C@@H]1C[C@H]1F)N1C2CCC1CN(c1ccnn3cc(-c4ccnnc4)cc13)C2 [Example 109, ((1S,2R)-2-fluorocyclopropyl)(3-(6-(pyridazin-4-yl)pyrrolo[1,2-b]pyridazin-4-yl)-3,8-diazabicyclo[3.2.1]octan-8-yl)methanone]	3.2	38	847	45
CC(C)C(=O)N1C2CCC1CN(c1ncnn3cc(-c4cnn(C)c4)cc13)C2 [Example 58, 2-methyl-1-(3-(6-(1-methyl-1H-pyrazol-4-yl)pyrrolo[2,1-f][1,2,4]triazin-4-yl)-3,8-diazabicyclo[3.2.1]octan-8-yl)propan-1-one]	960	10000	10000	10000
